Assay: coupled proteolysis-cGMP elevation bioassay with protease inhibitors
Format: in vitro ADME, human
[1] = Fig. 2B, 30 min, 37 °C, human kidney membranes, 293-GC-A cells, n=4

For Dendroaspis natriuretic peptide [DNP], which “activity in the presence of phosphoramidon” value (Fig. 2C, 120 min, 37 °C, human kidney membranes, human GC-A read-out, n=4) is on record?
Its value is “significantly less than control values”.

Which results are given for B-type natriuretic peptide [BNP]?
effect of leupeptin on degradation [1]: completely blocked the degradation; effect of phosphoramidon on degradation [1]: failed to preserve the activity; effect of boiling the membranes before peptide exposure (Fig. 2B, 30 min, 37 °C, 293-GC-A cells, n=4): blocked inactivation

Which results are given for C-type natriuretic peptide [CNP]?
effect of boiling the membranes prior to peptide exposure (Fig. 2A, 30 min, 37 °C, boiled human kidney membranes, n=8): abolished membrane-dependent inactivation; effect of actinonin together with phosphoramidon (Fig. 2A, 30 min, 37 °C, human kidney membranes, n=8): did not further increase activity above that seen with phosphoramidon alone; activity loss blocked by phosphoramidon (Fig. 2A, NEP inhibitor phosphoramidon, 30 min, 37 °C, human kidney membranes, n=8): about 40%; effect of actinonin alone on inactivation (Fig. 2A, meprin inhibitor actinonin, 30 min, 37 °C, human kidney membranes, n=8): did not block inactivation; effect of leupeptin on inactivation (Fig. 2A, serine-threonine-cysteine protease inhibitor leupeptin, 30 min, 37 °C, human kidney membranes, n=8): did not statistically increase the bioactivity; increase of bioactivity on inhibition of NEP in kidney membranes (phosphoramidon, human kidney membranes, 30 min, 37 °C (Fig. 2A)): 8 fold
